The test system of this test is P388 leukemia ip, CD2F1 mice, survival T/C. Description: NCI In Vivo Anticancer Drug Screen. Data for tumor model P388 Leukemia (intraperitoneal) in CD2F1 (CDF1) mice. Particulars: endpoint: median survival time, higher = longer survival. Put shortly:
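Mice carrying the transplanted tumor received test compound or vehicle. Survival was recorded in each group, and the value is the treated-group measurement divided by that of the vehicle-treated control group.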

Where [1] appears, read: dose: 50.0 mg/kg/injection, schedule: Q01DX005 (ip), vehicle: Klucel (hydroxypropylcellulose) (HPC).
Setting [2] is: dose: 100.0 mg/kg/injection, schedule: Q01DX005 (ip), vehicle: Klucel (hydroxypropylcellulose) (HPC).
The mark [3] stands for this setting: dose: 200.0 mg/kg/injection, schedule: Q01DX005 (ip), vehicle: Klucel (hydroxypropylcellulose) (HPC).
Where [4] appears, read: dose: 100.0 mg/kg/injection, schedule: Q04DX003 (ip), vehicle: saline with Tween-80.
The mark [5] stands for this setting: dose: 200.0 mg/kg/injection, schedule: Q04DX003 (ip), vehicle: saline with Tween-80.
Setting [6] is: dose: 400.0 mg/kg/injection, schedule: Q04DX003 (ip), vehicle: saline with Tween-80.
The mark [7] stands for this setting: dose: 60.0 mg/kg/injection, schedule: Q01DX005 (ip), vehicle: saline with Tween-80.
The mark [8] stands for this setting: dose: 120.0 mg/kg/injection, schedule: Q01DX005 (ip), vehicle: saline with Tween-80.
[9] abbreviates: dose: 240.0 mg/kg/injection, schedule: Q01DX005 (ip), vehicle: saline with Tween-80.
The mark [10] stands for this setting: dose: 100.0 mg/kg/injection, schedule: Q01DX009 (ip), vehicle: saline with Tween-80.
[11] abbreviates: dose: 50.0 mg/kg/injection, schedule: Q01DX009 (ip), vehicle: Klucel (hydroxypropylcellulose) (HPC).
[12] abbreviates: dose: 200.0 mg/kg/injection, schedule: Q01DX009 (ip), vehicle: Klucel (hydroxypropylcellulose) (HPC).

Where “and” joins values, the source holds several entries; their conditions need not be identical. Equal entries are not always repeated. Toxic doses and inconclusive results are not listed.

On to `CCN(CC)CCCNc1nccc2c(C)c3[nH]c4ccncc4c3cc12`, for which the T/C is 162 % of control (dose: 0.5 mg/kg/injection, schedule: Q04DX003 (ip), vehicle: other); 110 % of control (dose: 0.5 mg/kg/injection, schedule: Q04DX003 (iv), vehicle: other); 155 % of control (dose: 0.58 mg/kg/injection, schedule: Q04DX003 (ip), vehicle: other); 156 % of control (dose: 0.97 mg/kg/injection, schedule: Q04DX003 (ip), vehicle: other); 110 % of control (dose: 1.0 mg/kg/injection, schedule: Q04DX003 (iv), vehicle: other); 182 % of control (dose: 1.62 mg/kg/injection, schedule: Q04DX003 (ip), vehicle: other). Further, the T/C runs as follows: (dose: 2.0 mg/kg/injection, schedule: Q04DX003 (iv), vehicle: other) 112 % of control; (dose: 2.7 mg/kg/injection, schedule: Q04DX003 (ip), vehicle: other) 189 % of control; (dose: 3.24 mg/kg/injection, schedule: Q04DX002 (ip), vehicle: other) 170 % of control and 175 % of control; (dose: 3.89 mg/kg/injection, schedule: Q04DX002 (ip), vehicle: other) 179 % of control; (dose: 4.0 mg/kg/injection, schedule: Q04DX003 (iv), vehicle: other) 122 % of control; (dose: 4.5 mg/kg/injection, schedule: Q04DX003 (ip), vehicle: other) 196 % of control. Besides, the T/C was 168 % of control and 185 % of control (dose: 5.4 mg/kg/injection, schedule: Q04DX002 (ip), vehicle: other); 213 % of control (dose: 6.48 mg/kg/injection, schedule: Q04DX002 (ip), vehicle: other); 182 % of control (dose: 7.5 mg/kg/injection, schedule: Q04DX003 (ip), vehicle: other); 200 % of control and 207 % of control (dose: 9.0 mg/kg/injection, schedule: Q04DX002 (ip), vehicle: other); 194 % of control (dose: 10.8 mg/kg/injection, schedule: Q04DX002 (ip), vehicle: other); 200 % of control and 217 % of control (dose: 15.0 mg/kg/injection, schedule: Q04DX002 (ip), vehicle: other). Moreover, where the note is “dose: 18.0 mg/kg/injection, schedule: Q04DX002 (ip), vehicle: other”, the T/C is 215 % of control.
Take `NCCn1c(-c2ccccc2)nc2ccccc2c1=O`: the T/C reads like this: under setting [1], 100 % of control; under setting [2], 97 % of control; under setting [3], 109 % of control.
As to `Clc1ccc2[nH]c3nc4ccccc4nc3c2c1`, the T/C by setting is: (dose: 25.0 mg/kg/injection, schedule: Q01DX009 (ip), vehicle: saline with Tween-80) 100 % of control; (dose: 50.0 mg/kg/injection, schedule: Q01DX009 (ip), vehicle: saline with Tween-80) 105 % of control; under setting [4], 90 % of control; under setting [5], 100 % of control; under setting [6], 104 % of control.
For the molecule `COc1ccc(CCN2C(=O)C(=O)N(c3ccc([N+](=O)[O-])cc3)C2=O)cc1OC`, the T/C is 91 % of control (dose: 50.0 mg/kg/injection, schedule: Q01DX009 (ip), vehicle: saline); 94 % of control (dose: 100.0 mg/kg/injection, schedule: Q01DX009 (ip), vehicle: saline); 94 % of control (dose: 200.0 mg/kg/injection, schedule: Q01DX009 (ip), vehicle: saline).
As to `COC(=O)CC1(C(=O)OC)C2CCCN2C2(C#N)c3ccccc3CCC12Br` (centres undefined), the T/C by setting is: (dose: 100.0 mg/kg/injection, schedule: Q01DX001 (ip), vehicle: saline) 111 % of control; (dose: 200.0 mg/kg/injection, schedule: Q01DX001 (ip), vehicle: saline) 117 % of control; (dose: 400.0 mg/kg/injection, schedule: Q01DX001 (ip), vehicle: saline) 104 % of control.
For the molecule `CCc1nc(N)nc(N)c1-c1ccc(NCCc2ccccc2)c(N)c1`, the T/C is, setting by setting: under setting [1], 90 % of control; under setting [2], 96 % of control; under setting [3], 100 % of control.
`COC(=O)N1c2ccccc2SC1C#N` (centres undefined): the T/C runs as follows: under setting [7], 96 % of control; under setting [8], 112 % of control; under setting [9], 106 % of control.
With `C=C(Br)C[C@]1(C(=O)OC)CC(=O)CC[C@H]1c1ccco1`, the T/C runs as follows: (dose: 60.0 mg/kg/injection, schedule: Q01DX005 (ip), vehicle: Klucel (hydroxypropylcellulose) (HPC)) 108 % of control; (dose: 120.0 mg/kg/injection, schedule: Q01DX005 (ip), vehicle: Klucel (hydroxypropylcellulose) (HPC)) 107 % of control; (dose: 240.0 mg/kg/injection, schedule: Q01DX005 (ip), vehicle: Klucel (hydroxypropylcellulose) (HPC)) 106 % of control.
Regarding `COc1ccc2c(c1O)C1=CC(O)CCC13CCN(C)C3C2` (centres undefined), the T/C was 100 % of control (dose: 100.0 mg/kg/injection, schedule: Q04DX002 (ip), vehicle: suspension in saline); 96 % of control (dose: 200.0 mg/kg/injection, schedule: Q04DX002 (ip), vehicle: suspension in saline); 103 % of control (dose: 400.0 mg/kg/injection, schedule: Q04DX002 (ip), vehicle: suspension in saline).
Take `COc1cc(CC2C(=O)OCC2C(=O)c2ccc3c(c2)OCO3)cc(OC)c1OC` (centres undefined): the T/C is 102 % of control (dose: 12.5 mg/kg/injection, schedule: Q01DX005 (ip), vehicle: Klucel (hydroxypropylcellulose) (HPC)); 102 % of control (dose: 25.0 mg/kg/injection, schedule: Q01DX005 (ip), vehicle: Klucel (hydroxypropylcellulose) (HPC)); 91 % of control and 93 % of control under setting [1]; 98 % of control under setting [2]; 98 % of control under setting [3].
With `C=CC(C)(C)c1c2c(c(OC)c3ccc(=O)oc13)C=CC(C)(C)O2`, the T/C is 105 % of control (dose: 25.0 mg/kg/injection, schedule: Q01DX005 (ip), vehicle: saline with Tween-80); 99 % of control and 94 % of control (dose: 50.0 mg/kg/injection, schedule: Q01DX005 (ip), vehicle: saline with Tween-80); 96 % of control (dose: 100.0 mg/kg/injection, schedule: Q01DX005 (ip), vehicle: saline with Tween-80).
For the molecule `Nc1cc(=O)[nH][nH]1`, the T/C by setting is: under setting [4], 100 % of control; under setting [5], 100 % of control; under setting [6], 109 % of control.
Take `CC(=O)OCCN1c2ccccc2Sc2cnccc21`: the T/C was 100 % of control under setting [10]; 100 % of control (dose: 200.0 mg/kg/injection, schedule: Q01DX009 (ip), vehicle: saline with Tween-80); 95 % of control (dose: 400.0 mg/kg/injection, schedule: Q01DX009 (ip), vehicle: saline with Tween-80).
With `O=C1C2C3C=CC(C3)C2C(=O)N1c1ccc2nc(SC3C=CCCC3)sc2c1` (centres undefined), the T/C is, setting by setting: (dose: 12.5 mg/kg/injection, schedule: Q01DX009 (ip), vehicle: Klucel (hydroxypropylcellulose) (HPC)) 100 % of control; (dose: 25.0 mg/kg/injection, schedule: Q01DX009 (ip), vehicle: Klucel (hydroxypropylcellulose) (HPC)) 106 % of control; under setting [11], 99 % of control and 97 % of control; under setting [12], 88 % of control.
Consider `CCOC(=O)NC(=S)C1=C(N2CCOCC2)CCC1`, for which the T/C reads like this: under setting [11], 106 % of control; (dose: 100.0 mg/kg/injection, schedule: Q01DX009 (ip), vehicle: Klucel (hydroxypropylcellulose) (HPC)) 122 % of control; under setting [12], 97 % of control.
With `CC#CS(=O)C#CC`, the T/C is 105 % of control (dose: 3.12 mg/kg/injection, schedule: Q01DX009 (ip), vehicle: distilled water + alcohol) and 105 % of control (dose: 6.25 mg/kg/injection, schedule: Q01DX009 (ip), vehicle: distilled water + alcohol).
Turning to `CCOC(=O)c1cnn(C)c1N`, the T/C is, setting by setting: (dose: 66.7 mg/kg/injection, schedule: Q01DX009 (ip), vehicle: saline with Tween-80) 97 % of control; under setting [10], 110 % of control; (dose: 150.0 mg/kg/injection, schedule: Q01DX009 (ip), vehicle: saline with Tween-80) 105 % of control.
Regarding `O=C1c2ccccc2C(=O)N1C1Nc2ccccc2N1`, the T/C by setting is: under setting [7], 99 % of control; under setting [8], 99 % of control; under setting [9], 96 % of control.

These data come from PubChem BioAssay AID330 (DTP/NCI, 2004).
